In patent publication US20260242419A1, “A CYCLIC PEPTIDE FOR TRAPPING INTERLEUKIN-1 BETA” (Merck Sharp & Dohme LLC, priority 2023, published 2026):
Starred links: 1 amine or outer side, 2 acyl side, 3 side chain; linkers in the order of their positions; H or OH if unused. Non-standard residues stand in square brackets, D forms with d. Residues, ends and D or L forms follow the SMILES beside them. Phe(4-(5-CO2H-2-pyrimidyl)) = N[C@@H](Cc1ccc(-c2ncc(C(=O)O)cn2)cc1)C(=O)O; Phe(4-(4-Ac-piperazinyl)) = CC(=O)N1CCN(c2ccc(C[C@H](N)C(=O)O)cc2)CC1; dPro(4R-(4-pyridylmethyl)) = O=C(O)[C@H]1C[C@@H](Cc2ccncc2)CN1; Ala(piperidin-4-yl) = O=C([C@H](CC1CCN([*:3])CC1)N[*:1])[*:2]; Trp(βS-Me,4-F) = C[C@@H](c1c[nH]c2cccc(F)c12)[C@H](N)C(=O)O; Bip(4'-COOH) = N[C@@H](Cc1ccc(-c2ccc(C(=O)O)cc2)cc1)C(=O)O; Ala(1-bicyclo(1.1.1)pentyl) = N[C@@H](CC12CC(C1)C2)C(=O)O; dPro(4R-Bzl(4-F)) = O=C(O)[C@H]1C[C@@H](Cc2ccc(F)cc2)CN1; Ala(morpholin-4-yl) = N[C@@H](CN1CCOCC1)C(=O)O; Ala(pyrimidin-5-yl) = N[C@@H](Cc1cncnc1)C(=O)O; Phe(4-COOH) = N[C@@H](Cc1ccc(C(=O)O)cc1)C(=O)O; Pro(cis-4-F) = O=C(O)[C@@H]1C[C@H](F)CN1; cisHyp = O=C(O)[C@@H]1C[C@H](O)CN1; d(αMeD) = C[C@@](N)(CC(=O)O)C(=O)O; 4Pal = N[C@@H](Cc1ccncc1)C(=O)O; aThr = C[C@H](O)[C@H](N)C(=O)O; αMeD = C[C@](N)(CC(=O)O)C(=O)O; d(αMeS) = C[C@@](N)(CO)C(=O)O; Dab = NCC[C@H](N)C(=O)O; Aib = CC(C)(N)C(=O)O

target: T1, IL-1β (Homo sapiens, UniProt P01584); test: IL-6 assay in MRC5 cells: inhibition of IL-1β induced IL-6 secretion (AlphaLISA); type: cell-based; conditions: inhibition of IL-1β induced IL-6 secretion in MRC5 cells; read-out: MRC5 IC50
T1 construct: purchased BioLegend 579404
Method in brief: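 Compound was pre-incubated 1 h at ambient temperature with recombinant human IL-1β at 2λ EC80 before adding human lung fibroblast MRC5 cells (3000/well) in EMEM with 0.025% BSA. After overnight culture at 37 °C, 5% CO2, secreted IL-6 in conditioned medium was measured by AlphaLISA; IC50 from 4-parameter logistic fits.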

T1 sequence (P01584 117-269): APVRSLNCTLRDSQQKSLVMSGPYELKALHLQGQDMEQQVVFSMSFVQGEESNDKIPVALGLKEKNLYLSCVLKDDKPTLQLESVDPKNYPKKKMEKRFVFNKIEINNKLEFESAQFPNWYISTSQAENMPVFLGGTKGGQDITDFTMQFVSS

| SMILES | IC50 [nM] |
| --- | --- |
| C[C@@H](c1c[nH]c2cccc(F)c12)[C@@H]1NC(=O)[C@@H]2C[C@H](F)CN2C(=O)CNC(=O)[C@H](Cc2ccc(C(=O)O)cc2)NC(=O)[C@H](CC23CC(C2)C3)NC(=O)[C@H](Cc2ccc(-c3ccc(C(=O)O)cc3)cc2)NC(=O)[C@H]2C[C@@H](Cc3ccncc3)CN2C(=O)CNC(=O)[C@H](CO)NC(=O)[C@H](CCC(N)=O)NC(=O)[C@H](CN2CCOCC2)NC(=O)[C@@](C)(CO)NC(=O)[C@H](Cc2c[nH]c3ccccc23)NC(=O)[C@H](CCC(=O)O)NC(=O)C(C)(C)NC1=O [Example 177] (cyclo([Bip(4'-COOH)][Ala(1-bicyclo(1.1.1)pentyl)][Phe(4-COOH)]G[Pro(cis-4-F)][Trp(βS-Me,4-F)][Aib]EW[d(αMeS)][Ala(morpholin-4-yl)]QSG[dPro(4R-(4-pyridylmethyl))])) | 0.031 |
| C[C@@H](c1c[nH]c2cccc(F)c12)[C@@H]1NC(=O)[C@@H]2C[C@H](F)CN2C(=O)CNC(=O)[C@H](Cc2ccc(C(=O)O)cc2)NC(=O)[C@H](CC23CC(C2)C3)NC(=O)[C@H](Cc2ccc(-c3ccc(C(=O)O)cc3)cc2)NC(=O)[C@H]2C[C@@H](Cc3ccncc3)CN2C(=O)CNC(=O)[C@H](CO)NC(=O)[C@H](CCC(N)=O)NC(=O)[C@H](CC2CCNCC2)NC(=O)[C@@](C)(CO)NC(=O)[C@H](Cc2c[nH]c3ccccc23)NC(=O)[C@H](CCC(=O)O)NC(=O)C(C)(C)NC1=O [Example 178] (cyclo([Bip(4'-COOH)][Ala(1-bicyclo(1.1.1)pentyl)][Phe(4-COOH)]G[Pro(cis-4-F)][Trp(βS-Me,4-F)][Aib]EW[d(αMeS)][Ala(piperidin-4-yl)]QSG[dPro(4R-(4-pyridylmethyl))])) | 0.041 |
| C[C@@H](c1c[nH]c2cccc(F)c12)[C@@H]1NC(=O)[C@@H]2C[C@H](F)CN2C(=O)CNC(=O)[C@H](Cc2ccc(C(=O)O)cc2)NC(=O)[C@H](CC23CC(C2)C3)NC(=O)[C@H](Cc2ccc(-c3ccc(C(=O)O)cc3)cc2)NC(=O)[C@H]2C[C@@H](Cc3ccncc3)CN2C(=O)CNC(=O)[C@H](CO)NC(=O)[C@H](CCC(N)=O)NC(=O)[C@H](CN2CCOCC2)NC(=O)C(C)(C)NC(=O)[C@H](Cc2c[nH]c3ccccc23)NC(=O)[C@H](CO)NC(=O)C(C)(C)NC1=O [Example 179] (cyclo([Bip(4'-COOH)][Ala(1-bicyclo(1.1.1)pentyl)][Phe(4-COOH)]G[Pro(cis-4-F)][Trp(βS-Me,4-F)][Aib]SW[Aib][Ala(morpholin-4-yl)]QSG[dPro(4R-(4-pyridylmethyl))])) | 0.029 |
| C[C@@H](c1c[nH]c2cccc(F)c12)[C@@H]1NC(=O)[C@@H]2C[C@H](F)CN2C(=O)CNC(=O)[C@H](Cc2ccc(C(=O)O)cc2)NC(=O)[C@H](CC23CC(C2)C3)NC(=O)[C@H](Cc2ccc(-c3ccc(C(=O)O)cc3)cc2)NC(=O)[C@H]2C[C@@H](Cc3ccncc3)CN2C(=O)CNC(=O)[C@H](CO)NC(=O)[C@H](CCC(N)=O)NC(=O)[C@H](CC2CCNCC2)NC(=O)C(C)(C)NC(=O)[C@H](Cc2c[nH]c3ccccc23)NC(=O)[C@H](CO)NC(=O)C(C)(C)NC1=O [Example 180] (cyclo([Bip(4'-COOH)][Ala(1-bicyclo(1.1.1)pentyl)][Phe(4-COOH)]G[Pro(cis-4-F)][Trp(βS-Me,4-F)][Aib]SW[Aib][Ala(piperidin-4-yl)]QSG[dPro(4R-(4-pyridylmethyl))])) | 0.027 |
| C[C@H](O)[C@@H]1NC(=O)C(C)(C)NC(=O)[C@H]([C@@H](C)c2c[nH]c3cccc(F)c23)NC(=O)[C@@H]2C[C@H](O)CN2C(=O)CNC(=O)[C@H](Cc2ccc(C(=O)O)cc2)NC(=O)[C@H](CC23CC(C2)C3)NC(=O)[C@H](Cc2ccc(-c3ccc(C(=O)O)cc3)cc2)NC(=O)[C@H]2C[C@@H](Cc3ccncc3)CN2C(=O)CNC(=O)[C@H](CCN)NC(=O)[C@H](CCC(N)=O)NC(=O)[C@H](Cc2cncnc2)NC(=O)[C@@](C)(CC(=O)O)NC(=O)[C@H](Cc2c[nH]c3ccccc23)NC1=O [Example 182] (cyclo([Bip(4'-COOH)][Ala(1-bicyclo(1.1.1)pentyl)][Phe(4-COOH)]G[cisHyp][Trp(βS-Me,4-F)][Aib][aThr]W[d(αMeD)][Ala(pyrimidin-5-yl)]Q[Dab]G[dPro(4R-(4-pyridylmethyl))])) | 0.049 |
| CC(=O)N1CCN(c2ccc(C[C@@H]3NC(=O)[C@H]4C[C@@H](Cc5ccc(F)cc5)CN4C(=O)CNC(=O)[C@H](CCN)NC(=O)[C@H](CCC(N)=O)NC(=O)[C@H](Cc4cncnc4)NC(=O)C(C)(C)NC(=O)[C@H](Cc4c[nH]c5ccccc45)NC(=O)[C@H](CO)NC(=O)C(C)(C)NC(=O)[C@H]([C@@H](C)c4c[nH]c5cccc(F)c45)NC(=O)[C@@H]4C[C@H](F)CN4C(=O)CNC(=O)[C@H](Cc4ccc(C(=O)O)cc4)NC(=O)[C@H](Cc4ccncc4)NC3=O)cc2)CC1 [Example 183] (cyclo([Phe(4-(4-Ac-piperazinyl))][4Pal][Phe(4-COOH)]G[Pro(cis-4-F)][Trp(βS-Me,4-F)][Aib]SW[Aib][Ala(pyrimidin-5-yl)]Q[Dab]G[dPro(4R-Bzl(4-F))])) | 0.025 |
| C[C@@H](c1c[nH]c2cccc(F)c12)[C@@H]1NC(=O)[C@@H]2C[C@H](O)CN2C(=O)CNC(=O)[C@H](Cc2ccc(C(=O)O)cc2)NC(=O)[C@H](CC23CC(C2)C3)NC(=O)[C@H](Cc2ccc(-c3ncc(C(=O)O)cn3)cc2)NC(=O)[C@H]2C[C@@H](Cc3ccncc3)CN2C(=O)CNC(=O)[C@H](CCN)NC(=O)[C@H](CCC(N)=O)NC(=O)[C@H](Cc2cncnc2)NC(=O)C(C)(C)NC(=O)[C@H](Cc2c[nH]c3ccccc23)NC(=O)[C@H](CO)NC(=O)C(C)(C)NC1=O [Example 185] (cyclo([Phe(4-(5-CO2H-2-pyrimidyl))][Ala(1-bicyclo(1.1.1)pentyl)][Phe(4-COOH)]G[cisHyp][Trp(βS-Me,4-F)][Aib]SW[Aib][Ala(pyrimidin-5-yl)]Q[Dab]G[dPro(4R-(4-pyridylmethyl))])) | 0.043 |

The next molecules have a lower IC50 than those just listed; values first:

| IC50 [nM] | SMILES |
| --- | --- |
| 0.021 | C[C@@H](c1c[nH]c2cccc(F)c12)[C@@H]1NC(=O)[C@@H]2C[C@H](F)CN2C(=O)CNC(=O)[C@H](Cc2ccc(C(=O)O)cc2)NC(=O)[C@H](CC23CC(C2)C3)NC(=O)[C@H](Cc2ccc(-c3ccc(C(=O)O)cc3)cc2)NC(=O)[C@H]2C[C@@H](Cc3ccncc3)CN2C(=O)CNC(=O)[C@H](CO)NC(=O)[C@H](CCC(N)=O)NC(=O)[C@H](CC2CCNCC2)NC(=O)[C@@](C)(CO)NC(=O)[C@H](Cc2c[nH]c3ccccc23)NC(=O)[C@H](CO)NC(=O)C(C)(C)NC1=O [Example 181] (cyclo([Bip(4'-COOH)][Ala(1-bicyclo(1.1.1)pentyl)][Phe(4-COOH)]G[Pro(cis-4-F)][Trp(βS-Me,4-F)][Aib]SW[d(αMeS)][Ala(piperidin-4-yl)]QSG[dPro(4R-(4-pyridylmethyl))])) |
| 0.02 | C[C@@H](c1c[nH]c2cccc(F)c12)[C@@H]1NC(=O)[C@@H]2C[C@H](F)CN2C(=O)CNC(=O)[C@H](Cc2ccc(C(=O)O)cc2)NC(=O)[C@H](CC23CC(C2)C3)NC(=O)[C@H](Cc2ccc(-c3ncc(C(=O)O)cn3)cc2)NC(=O)[C@H]2C[C@@H](Cc3ccncc3)CN2C(=O)CNC(=O)[C@H](CCN)NC(=O)[C@H](CCC(N)=O)NC(=O)[C@H](Cc2cncnc2)NC(=O)[C@](C)(CC(=O)O)NC(=O)[C@H](Cc2c[nH]c3ccccc23)NC(=O)[C@H](CO)NC(=O)C(C)(C)NC1=O [Example 188] (cyclo([Phe(4-(5-CO2H-2-pyrimidyl))][Ala(1-bicyclo(1.1.1)pentyl)][Phe(4-COOH)]G[Pro(cis-4-F)][Trp(βS-Me,4-F)][Aib]SW[αMeD][Ala(pyrimidin-5-yl)]Q[Dab]G[dPro(4R-(4-pyridylmethyl))])) |
| 0.015 | C[C@@H](c1c[nH]c2cccc(F)c12)[C@@H]1NC(=O)[C@@H]2C[C@H](F)CN2C(=O)CNC(=O)[C@H](Cc2ccc(C(=O)O)cc2)NC(=O)[C@H](Cc2ccncc2)NC(=O)[C@H](Cc2ccc(-c3ncc(C(=O)O)cn3)cc2)NC(=O)[C@H]2C[C@@H](Cc3ccncc3)CN2C(=O)CNC(=O)[C@H](CCN)NC(=O)[C@H](CCC(N)=O)NC(=O)[C@H](Cc2cncnc2)NC(=O)C(C)(C)NC(=O)[C@H](Cc2c[nH]c3ccccc23)NC(=O)[C@H](CO)NC(=O)C(C)(C)NC1=O [Example 186] (cyclo([Phe(4-(5-CO2H-2-pyrimidyl))][4Pal][Phe(4-COOH)]G[Pro(cis-4-F)][Trp(βS-Me,4-F)][Aib]SW[Aib][Ala(pyrimidin-5-yl)]Q[Dab]G[dPro(4R-(4-pyridylmethyl))])) |
| 0.015 | C[C@@H](c1c[nH]c2cccc(F)c12)[C@@H]1NC(=O)[C@@H]2C[C@H](F)CN2C(=O)CNC(=O)[C@H](Cc2ccc(C(=O)O)cc2)NC(=O)[C@H](Cc2ccncc2)NC(=O)[C@H](Cc2ccc(-c3ncc(C(=O)O)cn3)cc2)NC(=O)[C@H]2C[C@@H](Cc3ccncc3)CN2C(=O)CNC(=O)[C@H](CCN)NC(=O)[C@H](CCC(N)=O)NC(=O)[C@H](Cc2cncnc2)NC(=O)[C@](C)(CC(=O)O)NC(=O)[C@H](Cc2c[nH]c3ccccc23)NC(=O)[C@H](CO)NC(=O)C(C)(C)NC1=O [Example 187] (cyclo([Phe(4-(5-CO2H-2-pyrimidyl))][4Pal][Phe(4-COOH)]G[Pro(cis-4-F)][Trp(βS-Me,4-F)][Aib]SW[αMeD][Ala(pyrimidin-5-yl)]Q[Dab]G[dPro(4R-(4-pyridylmethyl))])) |
| 0.014 | CC(=O)N1CCN(c2ccc(C[C@@H]3NC(=O)[C@H]4C[C@@H](Cc5ccc(F)cc5)CN4C(=O)CNC(=O)[C@H](CCN)NC(=O)[C@H](CCC(N)=O)NC(=O)[C@H](Cc4cncnc4)NC(=O)[C@](C)(CC(=O)O)NC(=O)[C@H](Cc4c[nH]c5ccccc45)NC(=O)[C@H](CO)NC(=O)C(C)(C)NC(=O)[C@H]([C@@H](C)c4c[nH]c5cccc(F)c45)NC(=O)[C@@H]4C[C@H](F)CN4C(=O)CNC(=O)[C@H](Cc4ccc(C(=O)O)cc4)NC(=O)[C@H](Cc4ccncc4)NC3=O)cc2)CC1 [Example 184] (cyclo([Phe(4-(4-Ac-piperazinyl))][4Pal][Phe(4-COOH)]G[Pro(cis-4-F)][Trp(βS-Me,4-F)][Aib]SW[αMeD][Ala(pyrimidin-5-yl)]Q[Dab]G[dPro(4R-Bzl(4-F))])) |
